US9895381B2, “Vitamin D receptor agonists to treat diseases involving CXCL12 activity” (Salk Institute for Biological Studies, priority 2013, dated 2018)
In brackets after ≈: the same amount, converted by molar mass.

What was measured:
primary mouse PSCs = assay: RNA-Seq transcriptome of PSCs with or without VDR ligand; assay type: cell-based
Method: Pancreatic stellate cells (PSCs) were isolated from pancreata of wild-type C57BL6/J mice at 8 weeks of age by a modification of the method described by Apte et al. (Apte et al., 1998). Briefly, pancreatic tissue was minced with scissors and digested with 0.02% Pronase (Roche, Indianapolis, Ind.), 0.05% Collagenase P (Roche), and 0.1% DNase (Roche) in Gey's balanced salt solution (GBSS; Sigma Aldrich, St. Louis, Mo.) at 37° C. for […] Digested tissue was then filtered through a 100 μm nylon mesh. Cells were washed once with GBSS, pelleted, and resuspended in 9.5 ml GBSS containing 0.3% bovine serum albumin (BSA) and 8 ml 28.7% Nycodenz solution (Sigma Aldrich; approximate density of the solution is 1.070). The cell suspension was layered beneath GBSS containing 0.3% BSA, and centrifuged at 1400×g for 20 min at 4° C. The cells of interest were harvested from the interface of the Nycodenz solution at the bottom and the aqueous solution at the top. Isolated PSCs were washed with GBSS and resuspended in DMEM (Invitrogen) containing 10% characterized FBS (HyClone) and antibiotics (penicillin 100 U/ml and streptomycin 100 μg/ml, Invitrogen). Cells were maintained at 37° C. in a humidified atmosphere of 7% CO2. After reaching 80% confluence, cells were briefly trypsinized (0.25% Trypsin-EDTA, Invitrogen) and subcultured. Total RNA from human and mouse PSCs was isolated using Trizol (Invitrogen) and the RNeasy mini kit with on-column DNase digestion (Qiagen) according to the manufacturers' instructions. Biological quadruplicates were used for human samples, and biological triplicates used for mouse samples. For transcriptome studies with VDR activation, PSCs were treated with vehicle (DMSO) or 100 nM calcipotriol (Tocris) and harvested at the indicated time points. Sequencing libraries were prepared from 100-500 ng total RNA using the TruSeq RNA Sample Preparation Kit v2 (Illumina) according to the manufacturer's protocol. The Gene Expression Omnibus accession number for the RNA-Seq data is GSE43770. Briefly, mRNA was purified, fragmented, and used for first-, then second-strand cDNA synthesis followed by adenylation of 3′ ends. Samples were ligated to unique adapters and subject to PCR amplification. Libraries were then validated using the 2100 BioAnalyzer (Agilent), normalized, and pooled for sequencing. Human normal and cancer-associated PSCs were sequenced on the Illumina GAII platform with a 41 bp read length, while mouse PSCs and human MiaPaCa-2 cells were sequenced on the Illumina HiSeq 2000 using bar-coded multiplexing and a 51 bp read length. Read alignment and junction mapping was accomplished using TopHat2 v2.0.4 using a 25 bp 5′ segment seed for initial mapping followed by differential gene expression analysis using Cuffdiff v2.0.2 to map reads to the reference genome annotation, NCBI mouse build 37.2 and human build 37.2 (Trapnell et al., 2012). Median sequencing read yield per replicate sample was 49.2M for MiaPaCa-2 cells, 25.4M for mouse PSCs and 53.8M for human PSCs. Data were expressed as fragments per kilobase of exon per million fragments mapped (FPKM). Volcano plots were generated from Cuffdiff output using CummeRbund v2.0.0 (Trapnell et al., 2012).

primary human CAPSCs = assay: ACTA2 expression by qRT-PCR; assay type: cell-based; conditions: 100 nM Cal, 48 h; samples responding / samples tested
Method: Total RNA was purified following Trizol extraction according to the manufacturer's instructions. cDNA synthesis was carried out using iScript reagent (Bio-Rad), and qRT-PCR performed using SsoAdvanced SYBR Green reagent on the CFX384 detection system (Bio-Rad). Relative expression values were determined using the standard curve method. Primer sequences can be found in Table 2.

[1] = cited from earlier work
wild type mice = assay: Cerulein-induced acute pancreatitis model; assay type: in vivo, mouse; conditions: cerulein with daily 40 μg/kg calcipotriol
Method: Tissues were embedded in O.C.T. and frozen sections were fixed in ice-cold methanol at −20° C. for 20 min. Sections were blocked in PBS+0.2% BSA+0.05% Triton X-100 (blocking solution) for 1 h at room temperature. Primary antibody dilutions in blocking solution were as follows: anti-phospho-STAT3(Tyr705), 1:100 (Cell Signaling Technology); anti-Collagen I, 1:500 (Abcam), anti-GFAP, 1:100 (Abcam); anti-CD45, 1:100 (BD Pharmingen). Primary antibody incubations were performed in a humidified chamber at 4° C. overnight. Sections were washed 3 times with PBS+0.05% Triton X-100, then incubated in secondary antibodies for 1 h at room temperature, protected from light. Secondary antibodies used included Alexa Fluor 594 goat anti-rabbit IgG, Alexa Fluor 488 goat anti-rabbit IgG, Alexa Fluor 594 goat anti-rat IgG, and Alexa Fluor 488 goat anti-mouse IgG (Molecular Probes) and were used at 1:250 in blocking solution. […] Fluorescence was visualized on a Leica DM5000B fluorescent microscope and quantified using ImageJ. […] Cerulein injections were administered as 6 hourly injections 2 times per week for 12 weeks and analyzed 1 week after final cerulein injection, adapted from previous studies (Sah et al., 2013; Treiber et al., 2011; Yoo et al., 2005). […] Images were obtained and quantification of Sirius Red-positive area performed using Nuance 3.0.1.2 software. […]

For `C=C1/C(=C\C=C2/CCC[C@]3(C)[C@@H]([C@H](C)/C=C/[C@@H](O)C4CC4)CC[C@@H]23)C[C@@H](O)C[C@@H]1O` [Cal, 1α,24-(OH)2-24-cyclopropyl-D3], the “effect on activation and cancer signatures in PSCs” value (primary mouse PSCs) was “inhibition of the activation and cancer signatures”, the “genes with significantly decreased expression” value (primary mouse PSCs; activated PSCs) was 1616 genes and the “genes with significantly increased expression” value (primary mouse PSCs; activated PSCs) was 664 genes. The “genes with significantly decreased expression” value (primary mouse PSCs; pre-activated PSCs) was 431 genes, the “genes with significantly increased expression” value (primary mouse PSCs; pre-activated PSCs) was 307 genes and the “decreased expression of αSMA (ACTA2), patient samples” value (primary human CAPSCs) was 24/27. For the same molecule, the “solubility in DMSO” value ([1]; DMSO) was 100 mM (≈ 41.3 mg/mL), the solubility in ethanol ([1]; ethanol) was 100 mM (≈ 41.3 mg/mL) and the “activation-associated changes in PSC gene expression” value (wild type mice) was “impaired activation-associated changes in PSC gene expression”. The “leukocyte infiltration and fibrosis” value (wild type mice) was “reduced leukocyte infiltration and fibrosis”.
